Laboratory results from the supplement of paper PMC11061612.

Assays:
Assay in all cases: Bliss excess, mean over the matrix (fraction); higher = more synergy
[1] = system: EBC-1 (Squamous Cell Lung Carcinoma)
Method in brief: (§1)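 Cell lines grown in DMEM/F12 or RPMI with 10% FBS were plated in 1536-well plates and held 24 hours at 37°C, 5% CO2 before 72 hours of exposure to two-drug dose matrices, with DMSO typically at 0.2%. CellTiter-Glo 2.0 luminescence gave viability, which was converted to inhibition. Vehicle wells were set to 0 and blank wells to 1. Combination Emax is the second-highest inhibition in the matrix, and Bliss excess is the observed combination effect minus the expected EA + EB − EA·EB, where EA and EB are the single-agent effects.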

[2] = system: KYSE-150 (Esophageal Squamous Cell Carcinoma)
Method in brief: as §1

[3] = system: LC4-1 (B-Lymphoblastic Leukemia)
Method in brief: as §1

[4] = system: BV-173 (Chronic Myelogenous Leukemia)
Method in brief: as §1

[5] = system: VMRC-LCD (Lung Adenocarcinoma)
Method in brief: as §1

GI-1 (Glioblastoma) = system: GI-1 (Glioblastoma)
Method in brief: as §1

A704 (Kidney Carcinoma) = system: A704 (Kidney Carcinoma)
Method in brief: as §1

[6] = system: ASH-3 (Thyroid Gland Carcinoma)
Method in brief: as §1

[7] = system: KINGS-1 (Low Grade Glioma)
Method in brief: as §1

IMR-5 (Neuroblastoma) = system: IMR-5 (Neuroblastoma)
Method in brief: as §1

[8] = system: NCI-H1573 (Lung Adenocarcinoma)
Method in brief: as §1

[9] = system: KU-19-19 (Bladder Carcinoma)
Method in brief: as §1

EW-13 (Ewing's Sarcoma) = system: EW-13 (Ewing's Sarcoma)
Method in brief: as §1

SMILES	Bliss excess [1]	Bliss excess [2]	Bliss excess [3]	Bliss excess [4]	Bliss excess [5]	Bliss excess (GI-1 (Glioblastoma))	Bliss excess (A704 (Kidney Carcinoma))	Bliss excess [6]	Bliss excess [7]	Bliss excess (IMR-5 (Neuroblastoma))	Bliss excess [8]	Bliss excess [9]	Bliss excess (EW-13 (Ewing's Sarcoma))
C=CCn1c(=O)c2cnc(Nc3ccc(N4CCN(C)CC4)cc3)nc2n1-c1cccc(C(C)(C)O)n1 [AZD1775] + O=C(c1cc(Cc2n[nH]c(=O)c3ccccc23)ccc1F)N1CCN(C(=O)C2CC2)CC1 [Olaparib] (first compound max 1 µM, partner max 10 µM)	-0.0549	0.0282	0.0226	0.0184	-0.0597	0.0056	-0.0396	-0.0054	-0.0777	-0.0161	-0.0251	-0.0107	-0.0801
CN(C)CCCOc1ccc(-c2ccc3ncc4c(c3c2)n(C2CCOCC2)c(=O)n4C)cn1 [AZD0156] + C=CCn1c(=O)c2cnc(Nc3ccc(N4CCN(C)CC4)cc3)nc2n1-c1cccc(C(C)(C)O)n1 [AZD1775] (first compound max 1 µM, partner max 1 µM)	-0.0603	-0.0386	-0.0353	0.0116	-0.0399	-0.0207	-0.0484	0.0012	-0.0779	-0.0214	-0.0537	-0.0043	0.0215
C[C@@H]1COCCN1c1cc(C2([S@](C)(=N)=O)CC2)nc(-c2ccnc3[nH]ccc23)n1 [AZD6738] + O=C(c1cc(Cc2n[nH]c(=O)c3ccccc23)ccc1F)N1CCN(C(=O)C2CC2)CC1 [Olaparib] (first compound max 10 µM, 7x7, partner max 10 µM)	-0.0153	0.0376	-0.009	-0.0099	-0.0231	0.0039	-0.0282	0.0361	0.0032	0.0432	0.0201	-0.032	-0.0574
COc1cc2c(cc1OCCCCCOc1cc3c(cc1OC)C(=O)N1C=C(C)C[C@H]1C=N3)N=C[C@@H]1CC(C)=CN1C2=O [SG3199] + O=C(c1cc(Cc2n[nH]c(=O)c3ccccc23)ccc1F)N1CCN(C(=O)C2CC2)CC1 [Olaparib] (first compound max 0.001 µM, 7x7, partner max 10 µM)	-0.014	-0.0131	-0.0371	0.0535	-0.042	-0.0178	-0.025	-0.0232	-0.0434	0.0167	-0.0212	-0.0041	-0.0415
Cc1cc2ncnn2cc1Nc1ncc2c(n1)n(C1CCOCC1)c(=O)n2C [AZD7648] + O=C(c1cc(Cc2n[nH]c(=O)c3ccccc23)ccc1F)N1CCN(C(=O)C2CC2)CC1 [Olaparib] (first compound max 10 µM, 7x7, partner max 10 µM)	-0.0167	-0.0351	-0.0517	-0.0062	-0.0443	-0.0013	-0.0821	0.0057	-0.0561	0.0328	-0.0205	-0.0153	-0.0427
COc1cccc(OCCCN)c1-c1cc(Nc2cnc(C#N)cn2)n[nH]1 [Prexasertib] + Cc1cc2ncnn2cc1Nc1ncc2c(n1)n(C1CCOCC1)c(=O)n2C [AZD7648] (first compound max 1 µM, 7x7, partner max 10 µM)	-0.0054	-0.0312	-0.0209	-0.0218	-0.0323	-0.019	0.0144	0.0598	-0.0464	-0.0065	0.0058	-0.0038	-0.015
CCN(CCO)CCCOc1ccc2c(Nc3cc(CC(=O)Nc4cccc(F)c4)[nH]n3)ncnc2c1 [AZD2811] + C=CCn1c(=O)c2cnc(Nc3ccc(N4CCN(C)CC4)cc3)nc2n1-c1cccc(C(C)(C)O)n1 [AZD1775] (first compound max 1 µM, partner max 1 µM)	0.0075	0.0438	-0.109	-0.0222	0.0049	0.0285	-0.0547	-0.016	-0.0173	-0.0064	-0.0457	-0.014	0.0393
COc1cccc(OCCCN)c1-c1cc(Nc2cnc(C#N)cn2)n[nH]1 [Prexasertib] + C[C@@H]1COCCN1C2=NC(=NC(=C2)C3(CC3)[S@](=N)(=O)C)C4=C5C=CNC5=NC=C4 [AZD6738] (first compound max 1 µM, 7x7, partner max 10 µM)	-0.0113	-0.0265	-0.0033	-0.0473	0.0201	-0.0195	0.0224	0.0902	0.0426	-0.01	0.0055	-0.0796	0.0572
CCN(CCO)CCCOc1ccc2c(Nc3cc(CC(=O)Nc4cccc(F)c4)[nH]n3)ncnc2c1 [AZD2811] + O=C(c1cc(Cc2n[nH]c(=O)c3ccccc23)ccc1F)N1CCN(C(=O)C2CC2)CC1 [Olaparib] (first compound max 1 µM, 7x7, partner max 10 µM)	-0.0077	0.0291	-0.0598	-0.0212	-0.0949	0.0685	-0.0195	0.0118	-0.0579	-0.0208	-0.016	0.0173	-0.0532
COc1cccc(OCCCN)c1-c1cc(Nc2cnc(C#N)cn2)n[nH]1 [Prexasertib] + C=CCn1c(=O)c2cnc(Nc3ccc(N4CCN(C)CC4)cc3)nc2n1-c1cccc(C(C)(C)O)n1 [AZD1775] (first compound max 1 µM, partner max 1 µM)	0.0628	0.149	0.0128	-0.0251	-0.0072	0.05	0.018	0.235	0.072	0.12	0.108	0.0222	0.0788
CN(C)CCCOc1ccc(-c2ccc3ncc4c(c3c2)n(C2CCOCC2)c(=O)n4C)cn1 [AZD0156] + C[C@@H]1COCCN1C2=NC(=NC(=C2)C3(CC3)[S@](=N)(=O)C)C4=C5C=CNC5=NC=C4 [AZD6738] (first compound max 1 µM, 7x7, partner max 10 µM)	0.0195	0.0146	-0.0743	0.0179	-0.0343	-0.0234	-0.0067	0.0429	-0.0474	-0.0432	-0.0098	0.0275	0.0006
CCN(CCO)CCCOc1ccc2c(Nc3cc(CC(=O)Nc4cccc(F)c4)[nH]n3)ncnc2c1 [AZD2811] + C[C@@H]1COCCN1C2=NC(=NC(=C2)C3(CC3)[S@](=N)(=O)C)C4=C5C=CNC5=NC=C4 [AZD6738] (first compound max 1 µM, 7x7, partner max 10 µM)	-0.0182	-0.0466	-0.0882	-0.0537	-0.0853	0.0144	-0.0087	-0.0367	-0.112	-0.0339	-0.0613	-0.0384	-0.0257
Cc1cc2ncnn2cc1Nc1ncc2c(n1)n(C1CCOCC1)c(=O)n2C [AZD7648] + C=CCn1c(=O)c2cnc(Nc3ccc(N4CCN(C)CC4)cc3)nc2n1-c1cccc(C(C)(C)O)n1 [AZD1775] (first compound max 10 µM, partner max 1 µM)	-0.0041	0.0333	-0.001	0.0237	-0.0057	0.0071	-0.0409	-0.0006	-0.0041	-0.0146	-0.0215	-0.0201	0.0225
CCc1c2c(nc3ccc(O)cc13)-c1cc3c(c(=O)n1C2)COC(=O)[C@]3(O)CC [SN-38] + CN(C)CCCOc1ccc(-c2ccc3ncc4c(c3c2)n(C2CCOCC2)c(=O)n4C)cn1 [AZD0156] (first compound max 0.3 µM, 7x7, partner max 1 µM)	-0.0488	0.1	-0.0587	-0.0256	-0.0338	0.0399	-0.0533	0.0121	-0.0185	0.0314	-0.0359	0.0033	-0.0589
COc1cccc2c1C(=O)c1c(O)c3c(c(O)c1C2=O)C[C@@](O)(C(=O)CO)C[C@@H]3O[C@H]1C[C@H](N)[C@H](O)[C@H](C)O1 [Doxorubicin] + Cc1cc2ncnn2cc1Nc1ncc2c(n1)n(C1CCOCC1)c(=O)n2C [AZD7648] (first compound max 1 µM, 7x7, partner max 10 µM)	0.0275	0.0648	0.111	0.0953	0.0256	0.107	-0.023	0.0829	0.0173	0.194	-0.0038	0.0843	0.0376
C=CCn1c(=O)c2cnc(Nc3ccc(N4CCN(C)CC4)cc3)nc2n1-c1cccc(C(C)(C)O)n1 [AZD1775] + C[C@@H]1COCCN1C2=NC(=NC(=C2)C3(CC3)[S@](=N)(=O)C)C4=C5C=CNC5=NC=C4 [AZD6738] (first compound max 1 µM, partner max 10 µM)	0.0592	-0.029	-0.0011	0.0199	0.0369	0.0753	-0.0022	0.0987	-0.0475	0.085	0.0215	-0.0113	0.0217
Cc1cc2ncnn2cc1Nc1ncc2c(n1)n(C1CCOCC1)c(=O)n2C [AZD7648] + CCN(CCO)CCCOc1ccc2c(Nc3cc(CC(=O)Nc4cccc(F)c4)[nH]n3)ncnc2c1 [AZD2811] (first compound max 10 µM, 7x7, partner max 1 µM)	0.0147	0.003	-0.114	-0.025	-0.0267	0.043	-0.0368	0.0309	0.0339	-0.0188	0.0382	0.0227	0.0259
CN(C)CCCOc1ccc(-c2ccc3ncc4c(c3c2)n(C2CCOCC2)c(=O)n4C)cn1 [AZD0156] + CCN(CCO)CCCOc1ccc2c(Nc3cc(CC(=O)Nc4cccc(F)c4)[nH]n3)ncnc2c1 [AZD2811] (first compound max 1 µM, 7x7, partner max 1 µM)	-0.0117	-0.0382	-0.108	-0.0331	-0.0476	0.0555	-0.039	0.0032	-0.0173	-0.0257	-0.0157	0.0358	0.009
Cc1cc2ncnn2cc1Nc1ncc2c(n1)n(C1CCOCC1)c(=O)n2C [AZD7648] + CN(C)CCCOc1ccc(-c2ccc3ncc4c(c3c2)n(C2CCOCC2)c(=O)n4C)cn1 [AZD0156] (first compound max 10 µM, 7x7, partner max 1 µM)	0.0204	0.0054	0.0127	0.0151	0.0122	0.0472	-0.0152	0.0116	0.0089	0.009	-0.0085	0.0009	-0.0385
